Experimental data from patent US20090068150A1, “LACTIC ACID BACTERIA CULTURE OF MUNG BEAN AND THE PREPARATION METHOD OF THE SAME, AND THE COSMETIC COMPOSITION COMPRISING THE SAME” (Doosan Corporation, priority 2005, published 2009).

Key:
[1] = tested on: CD-1 mouse; assay: Inflammation (skin stimulus) alleviating effect on TPA-induced ear inflammation; type: in vivo
Description: In order to examine the inflammation (skin stimulus) alleviating effect of the lactic acid bacteria culture of mung bean containing the mung bean extract and GABA, which was obtained in the embodiment 2, a following test was conducted according to a method used by Sheu et al. (The Journal of Investigative Dermatology, 118, pp 94-101, 2002).
First, CD-1 mouse (male & female, 6-8 weeks, Charles River, USA) were used as test objects, and as stimulus material, 10 μl of TPA (12-O-tetradecanonylphorbol-13-acetate) 0.03% (wt/vol. in acetone) solution was applied to inside and outside of both ears of the test animals. Due to the treatment material, the ear was thickened and there occurred an inflammatory reaction. After that, as a positive control group, clofibrate (1 mM) and Wy14643 (1 mM) which are agonists of PPAR CL (Sheu et al., The Journal of Investigative Dermatology, 118, pp 94-101, 2002), and as a test material, the lactic acid bacteria culture of mung bean in the embodiment 2 were applied to the both surfaces of the ears in an amount of […], respectively, at 45 minutes and 4 hours after the inflammation induction.

[2] = tested on: skin; settings: applied to the skin; cited from earlier work

Cc1cccc(Nc2cc(Cl)nc(SCC(=O)O)n2)c1C [WY14643]
ear swelling vs control group treated with TPA only (FIG. 4) ([1]; TPA + WY14643 (1 mM), applied 45 minutes and 4 hours after induction): the swelling was decreased | inflammation alleviation, H&E dyed tissue slide (FIG. 5) ([1]; positive controls 1 mM (group C Wy14643, group B clofibrate), vs TPA only): the inflammation was also alleviated | skin inflammation due to stimulus materials after application to the skin [2]: the inflammation due to stimulus materials is decreased
